Experimental data: ChEMBL document CHEMBL1136988, “1-amino-4-benzylphthalazines as orally bioavailable smoothened antagonists with antitumor activity” (J Med Chem, 2009)
pIC50: −log10 of the molar value.

Key:
Protein smoothened [1] = molecular target: T1, Protein smoothened (Mus musculus, UniProt P56726); assay type: cell-based, TM3
Description: Inhibition of Smoothened receptor in mouse TM3 cells transfected with pTA-8xGli-Luc reporter gene assessed as inhibition of 25 nM 3-chloro-4,7-difluoro-N-(4-methoxy-3-(pyridin-4-yl)benzyl)-N-(4-(methylamino)cyclohexyl)benzo[b]thiophene-2-carboxamide-induced Hedgehog pathway activation by Gli shift assay

Protein smoothened [2] = molecular target: T1, Protein smoothened; assay: Inhibition of Smoothened receptor in mouse TM3 cells transfected with pTA-8xGli-Luc reporter gene assessed as inhibition of 1 nM 3-chloro-4,7-difluoro-N-(4-methoxy-3-(pyridin-4-yl)benzyl)-N-(4-(methylamino)cyclohexyl)benzo[b]thiophene-2-carboxamide-induced Hedgehog pathway activation by Gli shift assay; assay type: cell-based
Protein smoothened [3] = molecular target: T1, Protein smoothened; assay: Displacement of [3H]3-chloro-4,7-difluoro-N-(4-methoxy-3-(pyridin-4-yl)benzyl)-N-(4-(methylamino)cyclohexyl)benzo[b]thiophene-2-carboxamide from mouse Smoothened receptor expressed in CHO-K1 cells by membrane filter binding assay; assay type: cell-based
Protein smoothened [4] = molecular target: Protein smoothened (Homo sapiens, UniProt Q99835); assay: Displacement of [3H]3-chloro-4,7-difluoro-N-(4-methoxy-3-(pyridin-4-yl)benzyl)-N-(4-(methylamino)cyclohexyl)benzo[b]thiophene-2-carboxamide from human Smoothened receptor expressed in CHO-K1 cells by membrane filter binding assay; assay type: cell-based
[5] = AUC (0 to infinity) in nude mouse plasma at 1 mg/kg, iv after 24 hrs; assay type: ADME, organism-based; design: time infinity, dose 1 mg/kg, route intravenous
[6] = AUC (0 to infinity) in nude mouse plasma at 5 mg/kg, po after 24 hrs; assay type: ADME, organism-based; design: time infinity, dose 5 mg/kg, route oral
[7] = AUC (0 to infinity) in nude mouse brain at 5 mg/kg, po after 24 hrs; assay type: ADME, organism-based; design: dose 5 mg/kg, route oral, time infinity
[8] = Ratio of AUC (0 to infinity) in brain to AUC (0 to infinity) in plasma of nude mouse at 5 mg/kg, po after 24 hrs; assay type: ADME, organism-based; design: dose 5 mg/kg, route oral; conditions: read-out: Ratio AUC
[9] = Clearance in nude mouse plasma at 1 mg/kg, iv after 24 hrs; assay type: ADME, organism-based; design: dose 1 mg/kg, route intravenous
[10] = Volume of distribution at steady state in nude mouse plasma at 1 mg/kg, iv after 24 hrs; assay type: ADME, organism-based; design: dose 1 mg/kg, route intravenous; conditions: read-out: Vdss
[11] = Half life in nude mouse plasma at 1 mg/kg, iv after 24 hrs; assay type: ADME, organism-based; design: dose 1 mg/kg, route intravenous
[12] = Cmax in nude mouse plasma at 5 mg/kg, po after 24 hrs; assay type: ADME, organism-based; design: dose 5 mg/kg, route oral
[13] = Cmax in nude mouse brain at 5 mg/kg, po after 24 hrs; assay type: ADME, organism-based; design: dose 5 mg/kg, route oral
[14] = Ratio of Cmax in brain to Cmax in plasma of nude mouse at 5 mg/kg, po after 24 hrs; assay type: ADME, organism-based; design: dose 5 mg/kg, route oral; conditions: read-out: Ratio_Cmax_brain/plasma
[15] = Tmax in nude mouse plasma at 5 mg/kg, po after 24 hrs; assay type: ADME, organism-based; design: dose 5 mg/kg, route oral
[16] = Oral bioavailability in nude mouse plasma at 5 mg/kg after 24 hrs; assay type: ADME, organism-based
Mus musculus [17] = assay: Hepatic blood flow in nude mouse at 1 mg/kg, iv; assay type: ADME, organism-based, Liver; design: dose 1 mg/kg, route intravenous; conditions: in vivo
Mus musculus [18] = assay: Total body water content in nude mouse at 1 mg/kg, iv; assay type: ADME, organism-based; design: dose 1 mg/kg, route intravenous; conditions: in vivo
[19] = Antitumor activity against mouse Ptch+/- p53-/- medulloblastoma cells xenografted Harlan nu/nu mouse at 5 mg/kg, po qd administered after 7 days tumor implantation measured after 12 days relative to control; assay type: functional, Medulloblastoma cell
[20] = Antitumor activity against mouse Ptch+/- p53-/- medulloblastoma cells xenografted Harlan nu/nu mouse at 10 mg/kg, po qd administered after 7 days tumor implantation measured after 12 days relative to control; assay type: functional, Medulloblastoma cell
[21] = Antitumor activity against mouse Ptch+/- p53-/- medulloblastoma cells xenografted Harlan nu/nu mouse at 20 mg/kg, po qd administered after 7 days tumor implantation measured after 12 days relative to control; assay type: functional, Medulloblastoma cell
[22] = Antitumor activity against mouse Ptch+/- p53-/- medulloblastoma cells xenografted Harlan nu/nu mouse at 40 mg/kg, po qd administered after 7 days tumor implantation measured after 12 days relative to control; assay type: functional, Medulloblastoma cell
[23] = Antitumor activity against mouse Ptch+/- p53-/- medulloblastoma cells xenografted Harlan nu/nu mouse at 5 mg/kg, po bid administered after 7 days tumor implantation measured after 12 days relative to control; assay type: functional, Medulloblastoma cell
[24] = Antitumor activity against mouse Ptch+/- p53-/- medulloblastoma cells xenografted Harlan nu/nu mouse at 10 mg/kg, po bid administered after 7 days tumor implantation measured after 12 days relative to control; assay type: functional, Medulloblastoma cell
[25] = Antitumor activity against mouse Ptch+/- p53-/- medulloblastoma cells xenografted Harlan nu/nu mouse assessed as tumor regression at 20 mg/kg, po bid administered after 7 days tumor implantation measured after 12 days; assay type: functional, Medulloblastoma cell
[26] = Antitumor activity against mouse Ptch+/- p53-/- medulloblastoma cells xenografted Harlan nu/nu mouse assessed as tumor regression at 40 mg/kg, po bid administered after 7 days tumor implantation measured after 12 days; assay type: functional, Medulloblastoma cell
Medulloblastoma cell [27] = assay: Antitumor activity against mouse Ptch+/- p53-/- medulloblastoma cells xenografted po dosed Harlan nu/nu mouse assessed as tumor regression administered after 7 days tumor implantation measured after 12 days; assay type: functional, organism-based
Mus musculus [28] = assay: Toxicity in mouse Ptch+/- p53-/- medulloblastoma cells xenografted Harlan nu/nu mouse at 5 to 40 mg/kg, po qd administered after 7 days tumor implantation measured after 12 days; assay type: organism-based; design: dose 5-40 mg/kg, route oral; conditions: in vivo, 288 h
Mus musculus [29] = assay: Toxicity in mouse Ptch+/- p53-/- medulloblastoma cells xenografted Harlan nu/nu mouse at 5 to 40 mg/kg, po bid administered after 7 days tumor implantation measured after 12 days; assay type: organism-based; design: dose 5-40 mg/kg, route oral; conditions: in vivo, 288 h
Mus musculus [30] = assay: Toxicity in mouse Ptch+/- p53-/- medulloblastoma cells xenografted Harlan nu/nu mouse assessed as change in body weight at 5 to 40 mg/kg, po qd administered after 7 days tumor implantation measured after 12 days; assay type: organism-based; design: dose 5-40 mg/kg, route oral; conditions: in vivo, 288 h
Mus musculus [31] = assay: Toxicity in mouse Ptch+/- p53-/- medulloblastoma cells xenografted Harlan nu/nu mouse assessed as change in body weight at 5 to 40 mg/kg, po bid administered after 7 days tumor implantation measured after 12 days; assay type: organism-based; design: dose 5-40 mg/kg, route oral; conditions: in vivo, 288 h
Medulloblastoma cell [32] = assay: Inhibition of Gli mRNA expression in mouse medulloblastoma cells at 5 mg/kg, po by RT-PCR; assay type: functional, organism-based; design: dose 5 mg/kg; conditions: TDE = time-dependent effect
Medulloblastoma cell [33] = assay: Inhibition of Gli mRNA expression in mouse medulloblastoma cells at 40 mg/kg, po by RT-PCR; assay type: functional, organism-based; design: dose 40 mg/kg; conditions: TDE = time-dependent effect
Medulloblastoma cell [34] = assay: Inhibition of Gli mRNA expression in mouse medulloblastoma cells after 1 to 24 hrs by RT-PCR; assay type: functional
[35] = Tmax in nude mouse brain at 5 mg/kg, po after 24 hrs; assay type: ADME, organism-based; design: dose 5 mg/kg, route oral

T1 sequence (P56726 whole entry): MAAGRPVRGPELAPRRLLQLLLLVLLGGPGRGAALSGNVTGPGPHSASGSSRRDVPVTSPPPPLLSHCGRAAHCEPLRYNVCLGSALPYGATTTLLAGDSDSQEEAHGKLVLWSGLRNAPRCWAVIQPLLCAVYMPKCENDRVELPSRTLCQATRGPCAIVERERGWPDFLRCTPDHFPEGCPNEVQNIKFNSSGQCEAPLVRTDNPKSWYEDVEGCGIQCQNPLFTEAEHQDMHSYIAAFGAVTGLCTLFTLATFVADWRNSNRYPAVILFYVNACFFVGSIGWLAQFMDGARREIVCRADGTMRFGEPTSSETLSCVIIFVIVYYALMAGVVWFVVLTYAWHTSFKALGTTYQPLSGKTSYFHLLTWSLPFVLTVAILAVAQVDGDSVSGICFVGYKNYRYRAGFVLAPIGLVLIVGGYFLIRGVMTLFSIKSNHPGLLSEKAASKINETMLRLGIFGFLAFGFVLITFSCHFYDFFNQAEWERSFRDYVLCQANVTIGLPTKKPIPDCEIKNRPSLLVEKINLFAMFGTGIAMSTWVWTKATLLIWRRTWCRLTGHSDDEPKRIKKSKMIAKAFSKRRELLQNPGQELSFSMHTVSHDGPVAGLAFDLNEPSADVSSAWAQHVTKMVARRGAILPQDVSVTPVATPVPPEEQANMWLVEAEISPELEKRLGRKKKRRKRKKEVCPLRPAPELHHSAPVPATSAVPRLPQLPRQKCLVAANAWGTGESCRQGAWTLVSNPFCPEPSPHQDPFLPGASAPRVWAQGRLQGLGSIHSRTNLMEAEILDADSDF
Sequence of Protein smoothened (Homo sapiens, UniProt Q99835) (Q99835 whole entry): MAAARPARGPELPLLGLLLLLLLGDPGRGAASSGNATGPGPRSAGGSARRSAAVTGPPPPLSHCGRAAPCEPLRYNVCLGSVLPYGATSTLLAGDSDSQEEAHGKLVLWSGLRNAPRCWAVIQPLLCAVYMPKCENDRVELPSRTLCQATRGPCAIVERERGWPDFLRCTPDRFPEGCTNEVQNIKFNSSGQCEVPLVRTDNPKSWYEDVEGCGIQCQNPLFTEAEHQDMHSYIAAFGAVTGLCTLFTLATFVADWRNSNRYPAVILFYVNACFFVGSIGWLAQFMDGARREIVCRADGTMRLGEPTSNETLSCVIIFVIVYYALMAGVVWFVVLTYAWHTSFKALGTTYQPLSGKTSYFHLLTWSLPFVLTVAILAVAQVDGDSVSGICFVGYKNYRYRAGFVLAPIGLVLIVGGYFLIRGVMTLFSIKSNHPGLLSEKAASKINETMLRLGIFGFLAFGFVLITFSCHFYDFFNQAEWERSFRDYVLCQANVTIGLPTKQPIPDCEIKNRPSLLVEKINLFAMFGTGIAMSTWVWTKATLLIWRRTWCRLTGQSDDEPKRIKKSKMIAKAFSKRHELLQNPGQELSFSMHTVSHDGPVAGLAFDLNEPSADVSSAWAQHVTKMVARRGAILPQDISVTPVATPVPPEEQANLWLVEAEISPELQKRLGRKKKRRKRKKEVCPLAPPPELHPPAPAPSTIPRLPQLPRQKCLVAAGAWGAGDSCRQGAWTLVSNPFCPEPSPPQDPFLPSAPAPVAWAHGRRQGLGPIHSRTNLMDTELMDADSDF

Compound: CC(C)(O)c1ccc(N2CCN(c3nnc(Cc4ccccc4)c4ccccc34)CC2)nc1
- pIC50 (Protein smoothened [1]): 7.46
- pIC50 (Protein smoothened [2]): 8.57
- pIC50 (Protein smoothened [3]): 8.30
- pIC50 (Protein smoothened [4]): 8.10
- AUC(0-inf) [5]: 7.23 µM·h
- AUC(0-inf) [6]: 26.5 µM·h
- AUC(0-inf) [7]: 8.82 µM·h
- Kp at 24 h [8]: 0.33
- clearance [9]: 5.24 mL/min/kg
- Vd [10]: 0.2 L/kg
- half-life [11]: 31.8 min
- Cmax [12]: 15.7 µM
- Cmax [13]: 2.39 µM
- Kp at 24 h [14]: 0.15
- Tmax [15]: 15 min
- bioavailability [16]: 73%
- QH (Mus musculus [17]): 90 mL/min/kg
- Activity (Mus musculus [18]): 0.7 L/kg
- T/C [19]: 80%
- T/C [20]: 77%
- T/C [21]: 45%
- T/C [22]: 19%
- T/C [23]: 69%
- T/C [24]: 40%
- T/C [25]: 15%
- T/C [26]: 71%
- Activity (Medulloblastoma cell [27]): Dose-dependent effect
- Activity (Mus musculus [28]): Non-toxic
- Activity (Mus musculus [29]): Non-toxic
- Activity (Mus musculus [30]): Non-toxic
- Activity (Mus musculus [31]): Non-toxic
- Activity (Medulloblastoma cell [32]): tde
- Activity (Medulloblastoma cell [33]): tde
- Activity (Medulloblastoma cell [34]): Dose-dependent effect
- Tmax [35]: 15 min
